Source: ChEMBL document CHEMBL4419120, “Bitter taste receptors” (2015)
Activity calls are given as the source filed them.

How the values were obtained:
[1] = target: T1, Taste receptor type 2 member 38 (Homo sapiens) (UniProt P59533); experiment: Activity at human TAS2R38 expressed in HEK-293T-Galpha16-gustducin44 cells assessed as threshold concentration of compound at which point receptor detects compounds by measuring calcium response by FLIPR assay; type: functional, cell-based
T1 sequence (whole entry): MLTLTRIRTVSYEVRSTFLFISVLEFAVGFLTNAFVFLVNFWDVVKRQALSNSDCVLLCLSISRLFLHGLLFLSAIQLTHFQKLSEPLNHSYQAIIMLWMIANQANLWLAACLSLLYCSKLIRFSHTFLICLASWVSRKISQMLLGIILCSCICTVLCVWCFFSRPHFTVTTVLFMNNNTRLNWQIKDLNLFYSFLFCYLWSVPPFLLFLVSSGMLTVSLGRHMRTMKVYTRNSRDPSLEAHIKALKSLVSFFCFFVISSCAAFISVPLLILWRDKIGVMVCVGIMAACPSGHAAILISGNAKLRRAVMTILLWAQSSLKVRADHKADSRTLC

[2] = target: T2, Taste receptor type 2 member 16 (Homo sapiens) (UniProt Q9NYV7); experiment: Activity at human TAS2R16 expressed in HEK-293T-Galpha16-gustducin44 cells assessed as threshold concentration of compound at which point receptor detects compounds by measuring calcium response by FLIPR assay; type: functional, cell-based
T2 sequence (whole entry): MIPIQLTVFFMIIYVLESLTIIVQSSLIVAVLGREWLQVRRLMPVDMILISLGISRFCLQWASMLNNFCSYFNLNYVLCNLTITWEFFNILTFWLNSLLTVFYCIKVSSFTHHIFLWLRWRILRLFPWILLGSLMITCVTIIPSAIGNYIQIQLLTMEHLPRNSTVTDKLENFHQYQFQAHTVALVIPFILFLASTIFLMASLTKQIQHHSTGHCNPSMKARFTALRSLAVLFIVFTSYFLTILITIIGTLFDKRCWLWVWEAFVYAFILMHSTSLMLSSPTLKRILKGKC

Homo sapiens [3] = experiment: In-vivo activity at TAS2R16 in trained human taste panelists assessed as threshold concentration of compound at which point panelists detects bitterness intensity of compound in sensory panel room at 22 to 25 degC by triangle test with tap water as solvent; type: functional
[4] = target: T2, Taste receptor type 2 member 16 (Homo sapiens); experiment: Activity at human TAS2R16 expressed in HEK293/15 cells assessed as threshold concentration of compound at which point receptor detects compounds by measuring calcium response by FLIPR assay; type: functional, cell-based
[5] = target: T3, Taste receptor type 2 member 16 (Homo sapiens, UniProt Q9NYV7); experiment: Activity at human TAS2R16 expressed in HEK293/15 cells assessed as effect on calcium response by FLIPR assay; type: functional, cell-based
T3 sequence (Q9NYV7 whole entry): T2 sequence (whole entry)

[6] = target: T3, Taste receptor type 2 member 16; experiment: Activity at human TAS2R16 expressed in HEK-293T-Galpha16-gustducin44 cells assessed as effect on calcium response by FLIPR assay; type: functional, cell-based
Homo sapiens [7] = experiment: In-vivo activity at TAS2R16 in trained human taste panelists assessed as detection of bitterness intensity of compound in sensory panel room at 22 to 25 degC by triangle test with tap water as solvent; type: functional, organism-based
[8] = target: T4, Taste receptor type 2 member 38 (Homo sapiens, UniProt P59533); experiment: Activity at human TAS2R38 expressed in HEK-293T-Galpha16-gustducin44 cells assessed as effect on calcium response by FLIPR assay; type: functional, cell-based
T4 sequence (P59533 whole entry): T1 sequence (whole entry)

[9] = target: T1, Taste receptor type 2 member 38 (Homo sapiens); experiment: Activity at human TAS2R38 expressed in HEK-293T-Galpha16-gustducin44 cells assessed as concentration of compound which reacts with receptor by measuring calcium response by FLIPR assay; type: functional, cell-based
[10] = target: T2, Taste receptor type 2 member 16 (Homo sapiens); experiment: Activity at human TAS2R16 expressed in HEK293/15 cells assessed as threshold concentration of compound at which point receptor detects compounds by measuring calcium response up to 100 mM by FLIPR assay; type: functional, cell-based
[11] = target: T2, Taste receptor type 2 member 16 (Homo sapiens); experiment: Activity at human TAS2R16 expressed in HEK293/15 cells assessed as effect on calcium response up to 100 mM by FLIPR assay; type: functional, cell-based
[12] = target: T5, Taste receptor type 2 member 10 (Homo sapiens) (UniProt Q9NYW0); experiment: Activity at human TAS2R10 expressed in HEK-293T-Galpha16-gustducin44 cells assessed as threshold concentration of compound at which point receptor detects compounds by measuring calcium response by FLIPR assay; type: functional, cell-based
T5 sequence (whole entry): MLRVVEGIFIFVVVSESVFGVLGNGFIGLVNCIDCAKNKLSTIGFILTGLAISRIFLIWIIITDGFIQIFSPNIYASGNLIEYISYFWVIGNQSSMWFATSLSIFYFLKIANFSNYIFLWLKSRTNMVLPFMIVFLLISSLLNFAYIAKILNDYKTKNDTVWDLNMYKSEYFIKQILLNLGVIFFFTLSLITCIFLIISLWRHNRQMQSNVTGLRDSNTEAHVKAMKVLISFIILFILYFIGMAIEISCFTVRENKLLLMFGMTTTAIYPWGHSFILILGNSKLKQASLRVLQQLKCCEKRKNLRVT

[13] = target: T6, Taste receptor type 2 member 10 (Homo sapiens, UniProt Q9NYW0); experiment: Activity at human TAS2R10 expressed in HEK-293T-Galpha16-gustducin44 cells assessed as effect on calcium response by FLIPR assay; type: functional, cell-based
T6 sequence (Q9NYW0 whole entry): T5 sequence (whole entry)

[14] = target: T7, Taste receptor type 2 member 14 (Homo sapiens) (UniProt Q9NYV8); experiment: Activity at human TAS2R14 expressed in HEK-293T-Galpha16-gustducin44 cells assessed as concentration of compound which reacts with receptor by measuring calcium response by FLIPR assay; type: functional, cell-based
T7 sequence (whole entry): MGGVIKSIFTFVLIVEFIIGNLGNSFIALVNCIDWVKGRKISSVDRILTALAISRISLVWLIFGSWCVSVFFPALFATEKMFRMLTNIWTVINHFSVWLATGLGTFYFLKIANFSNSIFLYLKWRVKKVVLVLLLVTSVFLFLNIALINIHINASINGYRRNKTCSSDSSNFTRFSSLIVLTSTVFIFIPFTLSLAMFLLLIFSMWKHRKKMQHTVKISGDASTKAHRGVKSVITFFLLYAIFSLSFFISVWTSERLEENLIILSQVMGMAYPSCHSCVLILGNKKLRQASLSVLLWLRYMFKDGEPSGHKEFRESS

[15] = target: T5, Taste receptor type 2 member 10 (Homo sapiens); experiment: Activity at human TAS2R10 expressed in HEK293/15 cells assessed as compound concentration showing threshold of activation on calcium response by FLIPR assay; type: functional, cell-based

## CC(=N)S
[1]
  Activity: 100 µM

## OC[C@H]1O[C@@H](Oc2ccc3ccccc3c2)[C@H](O)[C@@H](O)[C@@H]1O
[2]
  Activity: 0.4 mM
Homo sapiens [3]
  Activity: 0.2 mM
[4]
  Activity: 0.4 mM
[5]
  EC50: 1000 µM
[6]
  EC50: 1000 µM
Homo sapiens [7]
  EC50: 1400 µM

## CC(=O)NC(N)=S
[8]
  EC50: 15 µM
[1]
  Activity: 2 µM

## N#C[C@H](O[C@@H]1O[C@H](CO[C@@H]2O[C@H](CO)[C@@H](O)[C@H](O)[C@H]2O)[C@@H](O)[C@H](O)[C@H]1O)c1ccccc1 [AMYGDALIN]
[2]
  Activity: 2.3 mM
[4]
  Activity: 2.3 mM
[5]
  EC50: 20000 µM
[6]
  EC50: 20000 µM

## O=c1cc(-c2ccccc2)[nH]c(=S)[nH]1
[8]
  EC50: 0.5 µM
[1]
  Activity: 0.15 µM

## O=[N+]([O-])c1ccc(S[C@@H]2O[C@H](CO)[C@@H](O)[C@H](O)[C@H]2O)cc1
[2]
  Activity: 1 to 5 mM

## O=C1CC(=O)NC(=S)N1
[9]
  Activity: 10 mM

## NC(=S)Nc1ccccc1 [PHENYLTHIOUREA]
[8]
  EC50: 2 µM
[1]
  Activity: 0.3 µM

## OC[C@H]1O[C@@H](Oc2ccccc2)[C@H](O)[C@@H](O)[C@H]1O
[10]
  Activity: inactive
Homo sapiens [3]
  Activity: 40 mM
[11]
  Activity: inactive

## CCNC(N)=S
[8]
  EC50: 260 µM

## O=c1cc[nH]c(=S)[nH]1 [THIOURACIL]
[8]
  EC50: 2000 µM
[1]
  Activity: 300 µM

## O=Cc1ccccc1O[C@@H]1O[C@H](CO)[C@@H](O)[C@H](O)[C@H]1O [HELICIN]
[2]
  Activity: 0.3 mM
Homo sapiens [3]
  Activity: 0.4 mM
[4]
  Activity: 0.3 mM
[5]
  EC50: 2300 µM
[6]
  EC50: 2300 µM
Homo sapiens [7]
  EC50: 2200 µM

## CNC(N)=S
[8]
  EC50: 600 to 800 µM
[1]
  Activity: 100 µM

## OC[C@H]1O[C@@H](Oc2ccc(O)cc2)[C@H](O)[C@@H](O)[C@@H]1O [ARBUTIN]
[2]
  Activity: 0.5 mM
Homo sapiens [3]
  Activity: 0.9 mM
[4]
  Activity: 0.5 mM
[5]
  EC50: 5800 µM
[6]
  EC50: 5800 µM
Homo sapiens [7]
  EC50: 5400 µM

## OC[C@H]1O[C@H](Oc2ccccc2)[C@H](O)[C@@H](O)[C@@H]1O
[10]
  Activity: inactive
Homo sapiens [3]
  Activity: 9 mM
[11]
  Activity: inactive
Homo sapiens [7]
  EC50: 50000 µM

## CC[N+](CC)(CC(=O)Nc1c(C)cccc1C)Cc1ccccc1 [DENATONIUM BENZOATE]
[12]
  Activity: 0.003 mM
[13]
  EC50: 70 µM

## CCCc1cc(=O)[nH]c(=S)[nH]1 [PROPYLTHIOURACIL]
[8]
  EC50: 2 µM
[1]
  Activity: 0.3 µM

## OCc1ccccc1O[C@@H]1O[C@H](CO)[C@@H](O)[C@H](O)[C@H]1O [SALICIN]
[2]
  Activity: 0.07 mM
Homo sapiens [3]
  Activity: 0.2 mM
[4]
  Activity: 0.07 mM
[5]
  EC50: 1400 µM
[6]
  EC50: 1400 µM
Homo sapiens [7]
  EC50: 1100 µM

## CN(C)C=S
[8]
  EC50: 55 µM
[1]
  Activity: 10 µM

## O=[N+]([O-])c1ccccc1O[C@@H]1O[C@H](CO)[C@@H](O)[C@H](O)[C@H]1O
[2]
  Activity: 0.3 to 1 mM
[4]
  Activity: 1.5 mM

## S=C1NCCN1
[1]
  Activity: 10 µM

## CC(=S)Nc1ccccc1
[8]
  EC50: 18 µM
[1]
  Activity: 3 µM

## N[C@@H](Cc1ccc(O)cc1)C(=O)O
[14]
  Activity: 1 mM

## CN(C)C(=S)N(C)C
[8]
  EC50: 100 µM
[1]
  Activity: 10 to 30 µM

## COc1cc2c(cc1OC)[C@@]13CCN4CC5=CCO[C@H]6CC(=O)N2[C@H]1[C@H]6[C@H]5C[C@H]43 [BRUCINE]
[12]
  Activity: 0.01 mM
[15]
  Activity: Active
[13]
  EC50: 60 µM

## O=[N+]([O-])c1ccc(O[C@@H]2O[C@H](CO)[C@@H](O)[C@H](O)[C@@H]2O)cc1
[2]
  Activity: 1 to 3 mM

## OC[C@H]1O[C@@H](Oc2ccccc2)[C@H](O)[C@@H](O)[C@@H]1O
[2]
  Activity: 0.07 mM
Homo sapiens [3]
  Activity: 0.1 mM
[4]
  Activity: 0.07 mM
[5]
  EC50: 1100 µM
[6]
  EC50: 1100 µM
Homo sapiens [7]
  EC50: 700 µM

## CO[C@@H]1O[C@H](CO)[C@@H](O)[C@H](O)[C@H]1O
[2]
  Activity: 15 mM
Homo sapiens [3]
  Activity: 32 mM
[4]
  Activity: 15 mM
[6]
  EC50: 32000 µM

## O=C1C[C@@H]2OCC=C3CN4CC[C@]56c7ccccc7N1[C@H]5[C@H]2[C@H]3C[C@H]46 [STRYCHNINE]
[12]
  Activity: 0.003 mM
[15]
  Activity: 0.1 µM
[13]
  EC50: 40 µM

## CC/N=C(/N)S
[1]
  Activity: 30 µM

## O=c1ccc2cc(O[C@@H]3O[C@H](CO)[C@@H](O)[C@H](O)[C@H]3O)c(O)cc2o1 [ESCULIN]
[2]
  Activity: 4 mM
Homo sapiens [3]
  Activity: 4 mM
[4]
  Activity: 4 mM

## O=[N+]([O-])c1ccc(O[C@@H]2O[C@H](CO)[C@@H](O)[C@H](O)[C@H]2O)cc1
[2]
  Activity: 1 to 3 mM
